Paper PMC9525273 (Nature Communications, 2022)
Values joined by “and” are separate entries in the source; they are usually repeats but may differ in a detail not shown here. Equal values may be shown once. Read-outs that look alike come from different tables or passages of the source.

Legend:
Assay type in all cases: cell-based, Plasmodium falciparum
[1] = tested on: Dd2 parasites; assay: P. falciparum proliferation assay (72 h, fluorescent DNA-intercalating dye)
Experimental: (§1) For experiments with all other parasites, the effects of compounds of interest on parasite proliferation was measured in 96-well plates containing serial dilutions of the compounds in culture medium, with a fluorescent DNA-intercalating dye used to detect surviving parasites. The assays were initiated with erythrocytes infected with predominantly ring-stage parasites, and the starting parasitaemia and haematocrit were both 1%.

[2] = tested on: Dd2-Polδ parasites; assay: as above
Experimental: as §1

[3] = tested on: Dd2-PfATP4^T418N,P990R parasites; assay: as above
Experimental: as §1

[4] = tested on: HCR1 parasites (highly cipargamin-resistant clone 1); assay: as above
Experimental: as §1

[5] = tested on: Dd2-Polδ-PfATP4^G358S parasites; assay: as above
Experimental: as §1

[6] = tested on: HCR2 parasites (highly cipargamin-resistant clone 2); assay: as above
Experimental: as §1

[7] = tested on: NF54^CTL parasites; assay: P. falciparum proliferation assay (72 h, flow cytometry, SYBR Green I/MitoTracker)
Method in brief: (§2)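 Predominantly ring-stage cultures at 0.3% parasitaemia, 1% haematocrit, in medium with 10% O+ human serum; compound exposure 72 h, DMSO <0.5% (v/v). Live parasites counted by flow cytometry with SYBR Green I and 200 nM MitoTracker Deep Red. IC50/IC90 from linear interpolation of dose-response data.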

[8] = tested on: NF54^G358S-1 parasites; assay: as above
Method in brief: as §2

[9] = tested on: NF54^G358S-2 parasites; assay: as above
Method in brief: as §2

[10] = tested on: NF54^WT parasites; assay: microbe, parasite or virus in culture
Method in brief: as §2

C[C@H]1[C@@H](O)O[C@@H]2O[C@@]3(C)CC[C@H]4[C@H](C)CC[C@@H]1[C@@]24OO3 [Dihydroartemisinin]
IC50 ([1]; Plasmodium falciparum, DD2, read-out: Dihydroartemisinin IC50 values, Dd2, MEAN): 2.17 nM
IC50 ([1]; Plasmodium falciparum, DD2, read-out: Dihydroartemisinin IC50 values, Dd2, single experiments): 1.79 nM
IC50 ([1]; read-out: Dihydroartemisinin IC50 values, Dd2, single experiments): 1.66 nM and 2.87 nM and 2.36 nM
IC50 ([2]; Plasmodium falciparum, DD2, read-out: Dihydroartemisinin IC50 values, Dd2-Polδ, MEAN): 2.15 nM
IC50 ([2]; Plasmodium falciparum, DD2, read-out: Dihydroartemisinin IC50 values, Dd2-Polδ, single experiments): 2.08 nM
IC50 ([2]; read-out: Dihydroartemisinin IC50 values, Dd2-Polδ, single experiments): 2.37 nM and 1.58 nM and 2.55 nM
IC50 ([3]; Plasmodium falciparum, DD2, read-out: Dihydroartemisinin IC50 values, Dd2-PfATP4T418N,P990R, MEAN): 2.44 nM
IC50 ([3]; Plasmodium falciparum, DD2, read-out: Dihydroartemisinin IC50 values, Dd2-PfATP4T418N,P990R, single experiments): 2.1 nM
IC50 ([3]; read-out: Dihydroartemisinin IC50 values, Dd2-PfATP4T418N,P990R, single experiments): 2.01 nM and 2.76 nM and 2.9 nM
IC50 ([4]; Plasmodium falciparum, read-out: Dihydroartemisinin IC50 values, HCR1, MEAN): 1.55 nM
IC50 ([4]; read-out: Dihydroartemisinin IC50 values, HCR1, single experiments): 1.37 nM and 2.01 nM and 1.76 nM
IC50 ([5]; Plasmodium falciparum, DD2, read-out: Dihydroartemisinin IC50 values, Dd2-Polδ-PfATP4G358S, MEAN): 2.58 nM
IC50 ([5]; Plasmodium falciparum, DD2, read-out: Dihydroartemisinin IC50 values, Dd2-Polδ-PfATP4G358S, single experiments): 2.3 nM
IC50 ([5]; read-out: Dihydroartemisinin IC50 values, Dd2-Polδ-PfATP4G358S, single experiments): 2.08 nM and 3.3 nM and 2.66 nM
IC50 ([6]; Plasmodium falciparum, read-out: Dihydroartemisinin IC50 values, HCR2, MEAN): 1.51 nM
IC50 ([6]; Plasmodium falciparum, read-out: Dihydroartemisinin IC50 values, HCR2, single experiments): 1.46 nM
IC50 ([6]; read-out: Dihydroartemisinin IC50 values, HCR2, single experiments): 1.62 nM and 1.77 nM and 1.19 nM
FC (IC50) ([7]; NF54CTL compared to NF54WT): 1.1 fold
FC (IC90) ([7]; NF54CTL compared to NF54WT): 1.2 fold
IC90 ([7]; NF54CTL parasites, individual experiments, read-out: IC90 values): 3 nM and 2.45 nM and 2.56 nM
IC90 ([7]; Plasmodium falciparum, NF54, NF54CTL parasites, individual experiments, read-out: IC90 values): 2.88 nM
IC90 ([7]; Plasmodium falciparum, NF54, NF54CTL parasites, mean of the experiments, read-out: IC90 values, MEAN): 2.7 nM
IC50 ([7]; Plasmodium falciparum, NF54, NF54CTL, 10% human serum, read-out: IC50 ± SEM): 0.9 ± 0.1 nM
IC50 ([7]; Plasmodium falciparum, NF54, read-out: Dihydroartemisinin IC50 values, NF54CTL, MEAN): 0.89 nM
IC50 ([7]; read-out: Dihydroartemisinin IC50 values, NF54CTL, single experiments): 0.98 nM and 0.8 nM and 0.7 nM
FC (IC50) ([8]; NF54G358S-1 compared to NF54WT): 1.1 fold
FC (IC90) ([8]; NF54G358S-1 compared to NF54WT): 1.1 fold
IC90 ([8]; NF54G358S-1 parasites, individual experiments, read-out: IC90 values): 2.78 nM and 2.34 nM and 2.64 nM
IC90 ([8]; Plasmodium falciparum, NF54, NF54G358S-1 parasites, individual experiments, read-out: IC90 values): 2.68 nM
IC90 ([8]; Plasmodium falciparum, NF54, NF54G358S-1 parasites, mean of the experiments, read-out: IC90 values, MEAN): 2.6 nM
IC50 ([8]; Plasmodium falciparum, NF54, read-out: Dihydroartemisinin IC50 values, NF54G358S-1, MEAN): 0.9 nM
IC50 ([8]; read-out: Dihydroartemisinin IC50 values, NF54G358S-1, single experiments): 0.76 nM and 0.77 nM
FC (IC50) ([9]; NF54G358S-2 compared to NF54WT): 1.1 fold
FC (IC90) ([9]; NF54G358S-2 compared to NF54WT): 1.2 fold
IC90 ([9]; NF54G358S-2 parasites, individual experiments, read-out: IC90 values): 2.9 nM and 2.51 nM and 2.93 nM
IC50 ([9]; Plasmodium falciparum, NF54, NF54G358S-2, 10% human serum, read-out: IC50 ± SEM): 0.9 ± 0.1 nM
IC90 ([9]; Plasmodium falciparum, NF54, NF54G358S-2 parasites, individual experiments, read-out: IC90 values): 2.84 nM
IC90 ([9]; Plasmodium falciparum, NF54, NF54G358S-2 parasites, mean of the experiments, read-out: IC90 values, MEAN): 2.8 nM
IC50 ([9]; Plasmodium falciparum, NF54, read-out: Dihydroartemisinin IC50 values, NF54G358S-2, MEAN): 0.91 nM
IC50 ([9]; read-out: Dihydroartemisinin IC50 values, NF54G358S-2, single experiments): 0.73 nM
IC90 ([10]; NF54WT parasites, individual experiments, read-out: IC90 values): 1.85 nM and 1.87 nM and 2.79 nM
FC (IC50) ([10]; NF54WT, reference line): 1.0 fold
FC (IC90) ([10]; NF54WT, reference line): 1.0 fold
IC90 ([10]; Plasmodium falciparum, NF54, NF54WT parasites, individual experiments, read-out: IC90 values): 2.83 nM
IC90 ([10]; Plasmodium falciparum, NF54, NF54WT parasites, mean of the experiments, read-out: IC90 values, MEAN): 2.3 nM
IC50 ([10]; Plasmodium falciparum, NF54, NF54WT, 10% human serum, read-out: IC50 ± SEM): 0.8 ± 0.1 nM
IC50 ([10]; Plasmodium falciparum, NF54, read-out: Dihydroartemisinin IC50 values, NF54WT, MEAN): 0.84 nM
IC50 ([10]; read-out: Dihydroartemisinin IC50 values, NF54WT, single experiments): 0.78 nM and 0.71 nM and 0.86 nM
